According to patent US12030905B2, “Steviol glycoside compounds, compositions for oral ingestion or use, and method for enhancing steviol glycoside solubility” (Cargill, Incorporated, priority 2014, dated 2024):

Experiments:
[1] = Instantaneous solubility in deionized water at room temperature; format: physicochemical; conditions: for instantaneous solubility: vigorously mixed with deionized water for 10 minutes at room temperature, clear solution without precipitates
Excerpt: (§1) The composition can optionally be expressed in terms of the concentration of one or more steviol glycoside(s). Beneficially, it has been founds that compound(s) 1, 2, 3, and/or 4, can improve solubility of steviol glycosides in an aqueous solution, and therefore compositions can be prepared having a greater concentration of steviol glycosides in solution. As used herein “instantaneous solubility” refers to the solubility of a steviol glycoside, or mixture of steviol glycosides, that are vigorously mixed with deionized water at room temperature (25° C.). As used herein “equilibrium solubility” refers to the solubility of a steviol glycoside, or mixture of steviol glycosides, that are vigorously mixed with deionized water at 80° C. for 15 minutes, cooled to room temperature (25° C.), and then observed up to 4 days. Clear solutions without precipitates are considered soluble. Unless indicated otherwise herein, the term “solubility” refers to “equilibrium solubility.”
(§2) Instantaneous solubility is determined by mixing steviol glycoisde with deionized water vigorously for 10 minutes at room temperature. Equilibrium solubility is determined by heating deionized water with steviol glycoside at 80° C. for 15 minutes and cooling down to room temperature for observation up to 4 days. Clear solutions without precipitates are considered soluble.

[2] = Equilibrium solubility (heated at 80° C. for 15 minutes, cooled to room temperature, observed up to 4 days); format: physicochemical; conditions: for equilibrium solubility: deionized water, 80° C. for 15 minutes, cooled to room temperature, observed up to 4 days
Excerpt: as §1, §2

[3] = taste, versus sucrose/sugar; cited from earlier work

Compound | instantaneous solubility [1] | instantaneous solubility ([1]; listed as rebaudioside D) | equilibrium solubility at 0.08% ([2]; RebD 0.08% in deionized water) | equilibrium solubility [2] | times sweeter than sucrose [3] | instantaneous solubility at 0.10% ([1]; RebM 0.10% in deionized water) | instantaneous solubility at 0.13% ([1]; RebM 0.13% in deionized water) | instantaneous solubility ([1]; listed as rebaudioside M) | equilibrium solubility at 0.10% ([2]; RebM 0.10% in deionized water) | equilibrium solubility at 0.13% ([2]; RebM 0.13% in deionized water) | equilibrium solubility at 0.20% ([2]; RebM 0.20% in deionized water) | equilibrium solubility ([2]; listed as rebM) | equilibrium solubility ([2]; listed as rebaudioside M)
C=C1C[C@@]23CC[C@H]4[C@@](C)(CCC[C@@]4(C)C(=O)O[C@@H]4O[C@H](CO)[C@@H](O)[C@H](O)[C@H]4O[C@@H]4O[C@H](CO)[C@@H](O)[C@H](O)[C@H]4O)[C@@H]2CC[C@]1(O[C@@H]1O[C@H](CO)[C@@H](O)[C@H](O[C@@H]2O[C@H](CO)[C@@H](O)[C@H](O)[C@H]2O)[C@H]1O[C@@H]1O[C@H](CO)[C@@H](O)[C@H](O)[C@H]1O)C3 [RebD, rebaudioside D] | < 0.08% | less than 0.08% | soluble | 0.08% | 200-220 times |  |  |  |  |  |  |  | 
C=C1C[C@@]23CC[C@H]4[C@@](C)(CCC[C@@]4(C)C(=O)O[C@@H]4O[C@H](CO)[C@@H](O)[C@H](O[C@@H]5O[C@H](CO)[C@@H](O)[C@H](O)[C@H]5O)[C@H]4O[C@@H]4O[C@H](CO)[C@@H](O)[C@H](O)[C@H]4O)[C@@H]2CC[C@]1(O[C@@H]1O[C@H](CO)[C@@H](O)[C@H](O[C@@H]2O[C@H](CO)[C@@H](O)[C@H](O)[C@H]2O)[C@H]1O[C@@H]1O[C@H](CO)[C@@H](O)[C@H](O)[C@H]1O)C3 [RebM, rebaudioside M] | at least 0.13% |  |  |  |  | soluble | soluble | about 0.13% | soluble | soluble | soluble | at least 0.2% | about 0.2%
